Test system: chronic pain
Assay: not given
Settings: in vivo; cited from earlier work

Row | SMILES | effect on chronic pain
1 | CCN(CC)CC(=O)Nc1c(C)cccc1C [lidocaine] | effective to treat chronic pain

Test system: rats
Assay: not given
Settings: rat, in vivo; cited from earlier work

Row | SMILES | effect on mechanical allodynic behavior
2 | NC1=N[C@H](O)[C@H]2[C@H]3O[C@]4(O)O[C@@H]([C@@H](O)[C@@]2(N1)[C@@H]4O)[C@]3(O)CO [TTX, tetrodotoxin] | significantly reduces mechanical allodynic behavior

Target: T1, human T-type channel alpha-1H (CaV 3.2) (Homo sapiens, UniProt O95180)
T1 construct: expressed in transfected cells; host or cells: HEK 293
T1 sequence (O95180 whole entry): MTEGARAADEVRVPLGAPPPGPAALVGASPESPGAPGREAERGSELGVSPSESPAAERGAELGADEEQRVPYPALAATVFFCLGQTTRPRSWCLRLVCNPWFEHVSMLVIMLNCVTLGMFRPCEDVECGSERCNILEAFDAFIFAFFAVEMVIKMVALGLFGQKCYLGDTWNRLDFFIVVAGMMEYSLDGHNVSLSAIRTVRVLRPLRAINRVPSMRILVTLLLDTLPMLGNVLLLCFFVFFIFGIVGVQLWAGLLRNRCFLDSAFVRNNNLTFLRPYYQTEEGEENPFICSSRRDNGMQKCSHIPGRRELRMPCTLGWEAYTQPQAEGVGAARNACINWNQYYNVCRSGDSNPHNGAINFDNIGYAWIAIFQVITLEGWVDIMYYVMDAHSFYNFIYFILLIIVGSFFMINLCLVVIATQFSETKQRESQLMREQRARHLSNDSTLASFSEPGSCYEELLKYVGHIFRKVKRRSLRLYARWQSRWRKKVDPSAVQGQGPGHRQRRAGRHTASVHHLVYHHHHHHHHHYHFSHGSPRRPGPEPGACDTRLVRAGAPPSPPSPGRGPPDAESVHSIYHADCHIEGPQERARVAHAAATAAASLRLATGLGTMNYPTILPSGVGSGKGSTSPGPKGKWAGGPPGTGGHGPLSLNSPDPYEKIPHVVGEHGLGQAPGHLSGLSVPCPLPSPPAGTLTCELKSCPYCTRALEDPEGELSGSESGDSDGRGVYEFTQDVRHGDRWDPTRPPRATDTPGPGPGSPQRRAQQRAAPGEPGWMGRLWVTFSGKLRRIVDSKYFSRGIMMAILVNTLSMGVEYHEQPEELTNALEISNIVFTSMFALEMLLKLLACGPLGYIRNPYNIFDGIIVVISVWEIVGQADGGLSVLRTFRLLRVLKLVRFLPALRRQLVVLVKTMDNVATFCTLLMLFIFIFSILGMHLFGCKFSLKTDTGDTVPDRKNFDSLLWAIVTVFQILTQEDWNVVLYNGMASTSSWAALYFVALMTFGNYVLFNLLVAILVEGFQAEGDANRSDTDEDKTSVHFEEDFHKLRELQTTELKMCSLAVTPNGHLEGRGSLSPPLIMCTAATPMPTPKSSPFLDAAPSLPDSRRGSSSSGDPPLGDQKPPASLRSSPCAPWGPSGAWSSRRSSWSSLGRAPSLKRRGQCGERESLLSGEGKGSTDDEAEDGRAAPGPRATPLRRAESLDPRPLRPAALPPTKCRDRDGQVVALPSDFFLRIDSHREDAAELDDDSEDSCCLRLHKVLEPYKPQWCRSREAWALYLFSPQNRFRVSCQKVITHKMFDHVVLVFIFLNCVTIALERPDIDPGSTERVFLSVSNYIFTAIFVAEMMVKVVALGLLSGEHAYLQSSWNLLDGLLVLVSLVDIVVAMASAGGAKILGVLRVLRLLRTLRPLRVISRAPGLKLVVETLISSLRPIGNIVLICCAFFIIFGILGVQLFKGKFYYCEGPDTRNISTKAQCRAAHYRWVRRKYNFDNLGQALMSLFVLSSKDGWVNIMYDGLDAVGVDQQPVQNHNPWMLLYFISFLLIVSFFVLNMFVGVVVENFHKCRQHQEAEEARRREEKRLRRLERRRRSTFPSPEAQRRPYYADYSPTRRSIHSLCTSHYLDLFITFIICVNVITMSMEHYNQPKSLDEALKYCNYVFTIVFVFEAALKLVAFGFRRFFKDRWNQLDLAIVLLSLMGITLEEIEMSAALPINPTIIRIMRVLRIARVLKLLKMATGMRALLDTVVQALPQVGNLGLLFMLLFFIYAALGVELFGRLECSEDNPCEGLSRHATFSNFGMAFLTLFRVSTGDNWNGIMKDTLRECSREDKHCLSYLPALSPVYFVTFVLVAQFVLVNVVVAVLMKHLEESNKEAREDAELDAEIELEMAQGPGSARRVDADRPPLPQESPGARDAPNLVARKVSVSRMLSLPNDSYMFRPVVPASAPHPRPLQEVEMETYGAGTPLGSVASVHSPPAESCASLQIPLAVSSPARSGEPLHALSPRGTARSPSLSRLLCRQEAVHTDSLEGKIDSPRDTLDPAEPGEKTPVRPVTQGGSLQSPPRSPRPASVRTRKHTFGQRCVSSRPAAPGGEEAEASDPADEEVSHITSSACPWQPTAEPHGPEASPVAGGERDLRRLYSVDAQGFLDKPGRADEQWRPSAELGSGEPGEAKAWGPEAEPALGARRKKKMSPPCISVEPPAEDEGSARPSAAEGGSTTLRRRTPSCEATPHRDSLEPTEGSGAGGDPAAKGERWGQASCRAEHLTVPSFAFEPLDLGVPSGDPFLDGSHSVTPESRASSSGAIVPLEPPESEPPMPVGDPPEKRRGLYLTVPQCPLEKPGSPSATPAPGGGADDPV
Assay: Ca2+ Influx Assay (cell-based fluorescent, FDSS)
Settings: HEK 293 cells expressing human CaV 3.2
Procedure, shortened: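 HEK293 cells stably expressing human CaV3.2, loaded with Fluo-4-AM 1 h at 37 °C. Compound added 4.5 min before potassium ionophore, then high-K+ depolarization with fluorescence monitored on FDSS. IC50 from 7-point dose-response, duplicate wells.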

Row | SMILES | IC50 [nM]
3 | C[C@H](NC(=O)[C@@H]1C[C@H]1c1cccc(OCc2ccccc2)c1)c1ccc(OCC(F)(F)F)cn1 (stereo in doubt) [Example 346, (1R*,2R*)-2-(3-(benzyloxy)phenyl)-N-((S)-1-(5-(2,2,2-trifluoroethoxy)pyridin-2-yl)ethyl)cyclopropanecarboxamide] | ≤ 300
4 | C[C@@H](NC(=O)COc1ccc(C(F)(F)F)cc1)c1ccc(OCC(F)(F)F)cn1 [Example 3, (R)-N-(1-(5-(2,2,2-trifluoroethoxy)pyridin-2-yl)ethyl)-2-(4-(trifluoromethyl)phenoxy)acetamide] | ≤ 300
5 | C[C@@H](NC(=O)CCc1c[nH]c2ccccc12)c1ccc(OCC(F)(F)F)cn1 [Example 33, (R)-3-(1H-indol-3-yl)-N-(1-(5-(2,2,2-trifluoroethoxy)pyridin-2-yl)ethyl)propanamide] | ≤ 300
6 | C[C@@H](NC(=O)CCCc1c[nH]c2ccccc12)c1ccc(OCC(F)(F)F)cn1 [Example 57, (R)-4-(1H-indol-3-yl)-N-(1-(5-(2,2,2-trifluoroethoxy)pyridin-2-yl)ethyl)butanamide] | ≤ 300
7 | Cc1cc(OCC(F)(F)F)cnc1[C@@H](C)NC(=O)CCc1c[nH]c2ccccc12 [Example 104, (R)-3-(1H-indol-3-yl)-N-(1-(3-methyl-5-(2,2,2-trifluoroethoxy)pyridin-2-yl)ethyl)propanamide] | ≤ 300
8 | C[C@@H](NC(=O)C1CC1c1cc(F)cc(F)c1)c1ccc(OCC2CC2)cn1 (stereo partly drawn) [Example 193, trans-N-((R)-1-(5-(cyclopropylmethoxy)pyridin-2-yl)ethyl)-2-(3,5-difluorophenyl) cyclopropanecarboxamide] | ≤ 300
9 | C[C@@H](NC(=O)C1CC1c1cc2cc(F)ccc2[nH]1)c1ccc(OCC(F)(F)F)nc1 (stereo partly drawn) [Example 210, trans-2-(5-fluoro-1H-indol-2-yl)-N-((R)-1-(6-(2,2,2-trifluoroethoxy)pridin-3-yl)ethyl)cyclopropanecarboxamide] | ≤ 300
10 | C[C@@H](NC(=O)C1CC1c1ccc2cnn(C)c2c1)c1ccc(OCC(F)(F)F)nc1 (stereo partly drawn) [Example 228, trans-2-(1-methyl-1H-indazol-6-yl)-N-((R)-(6-(2,2,2-trifluoroethoxy)pyridin-3-yl)ethyl)cyclopropanecarboxamide] | ≤ 300
11 | C[C@@H](NC(=O)C1CC1c1ccc2cnn(C)c2c1)c1cnc(OCC(F)(F)F)cn1 (stereo partly drawn) [Example 229, trans-2-(1-methyl-1H-indazol-6-yl)-N-((R)-1-(5-(2,2,2-trifluoroethoxy)pyrazin-2-yl)ethyl)cyclopropanecarboxemide] | ≤ 300

From US9101616B2, “Aryl substituted carboxamide derivatives as calcium or sodium channel blockers” (RaQualia Pharma Inc., priority 2009, dated 2015)
